According to ChEMBL document CHEMBL1126377, “Synthesis of 9-[2-(phosphonomethoxy)ethylamino]adenine and 9-[(phosphonomethoxy)acetamido]adenine, analogues of a potent anti-HIV acyclonucleotide” (Bioorg Med Chem Lett, 1992):
The source made the active and inactive calls. No cut-off for these calls is given here.

Key:
Type in all cases: functional, organism-based
[1] = tested on: Human immunodeficiency virus 1; assay: Inhibition of the replication of human immunodeficiency virus (HIV) at 10 uM concentration
Cytomegalovirus = assay: Effect on replication of cytomegalovirus at a concentration of 300 uM; NE=No effect
Human alphaherpesvirus 3 = assay: Effect on replication of varicella zoster virus at a concentration of 300 uM; NE=No effect
Human alphaherpesvirus 2 = assay: Effect on replication of herpes simplex virus type 2 at a concentration of 300 uM; NE=No effect
Human alphaherpesvirus 1 = assay: Effect on replication of herpes simplex virus type 1 at a concentration of 300 uM; NE=No effect
[2] = tested on: Human immunodeficiency virus 1; assay: Inhibition of the replication of human immunodeficiency virus (HIV) at 10 uM concentration; NE=No effect

SMILES | IC50 [1] [µM] | Activity (Cytomegalovirus) | Activity (Human alphaherpesvirus 3) | Activity (Human alphaherpesvirus 2) | Activity (Human alphaherpesvirus 1) | Activity [2]
Nc1ncnc2c1ncn2OCC/C=C/P(=O)(O)O | 10 |  |  |  |  | 
Nc1ncnc2c1ncn2NCCOCP(=O)(O)O |  | inactive | inactive | inactive | inactive | inactive
Nc1ncnc2c1ncn2OCCOCP(=O)(O)O | 0.3 |  |  |  |  | 
Nc1ncnc2c1ncn2NC(=O)COCP(=O)(O)O |  | inactive | inactive | inactive | inactive | inactive
